Measurements: patent publication US8952024B2, “Herbicidal pyrimidone derivatives” (E I du Pont de Nemours and Company, priority 2009, dated 2015)

Tests used:
Assay type in all cases: in vivo
[1] = test system: Italian ryegrass (Lolium multiflorum); test: Test B pre-/postemergence plant response
Outline: (§1)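 Pre-em in loam/sand; post-em at 1–4 leaf (2–18 cm) in peat mix. Solvent + surfactant formulation. Greenhouse 13–15 d; visual % control vs untreated, 0–100.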

[2] = test system: galium (catchweed bedstraw, Galium aparine); test: Test B pre-/postemergence plant response; details: Preemergence
Outline: as §1

[3] = test system: giant foxtail (Setaria faberii); test: Test B pre-/postemergence plant response
Outline: as §1

[4] = test system: nightshade (eastern black nightshade, Solanum ptycanthum); test: Test B pre-/postemergence plant response; details: Preemergence
Outline: as §1

[5] = test system: ragweed (common ragweed, Ambrosia elatior); test: Test B pre-/postemergence plant response
Outline: as §1

[6] = test system: sunflower (common oilseed sunflower, Helianthus annuus); test: Test B pre-/postemergence plant response; details: Preemergence
Outline: as §1

[7] = test system: canarygrass (Phalaris minor); test: Test B postemergence plant response
Outline: (§2)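 Plants at the 1- to 4-leaf stage (2 to 18 cm tall), grown in pots of peat moss/vermiculite medium with wetting agent and starter nutrients, received postemergence applications of test chemicals. After 13 to 15 days in a greenhouse, injury was rated visually against untreated controls on a 0 (no effect) to 100 (complete control) scale.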

[8] = test system: chickweed (Stellaria media); test: Test B postemergence plant response
Outline: as §2

[9] = test system: windgrass (Apera spica-venti); test: Test B postemergence plant response
Outline: as §2

[10] = test system: winter barley (Hordeum vulgare); test: Test B postemergence plant response
Outline: as §2

[11] = test system: barnyardgrass (Echinochloa crus-galli); test: Test B flooded paddy test; details: for Plant response rating, Barnyardgrass: Flood (flooded paddy test), 13 to 15 days
Outline: (§3)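 Plants were grown to the 2-leaf stage, then pots were flooded to 3 cm above the soil and compounds were applied directly into the paddy water. That depth was held throughout. After 13 to 15 days in a greenhouse, injury was visually rated against controls on a 0–100 scale.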

[12] = test system: ducksalad (Heteranthera limosa); test: Test B flooded paddy test; details: for Plant response rating, Ducksalad: Flood (flooded paddy test), 13 to 15 days
Outline: as §3

rice (Oryza sativa) = test: Test B flooded paddy test; details: for Plant response rating, Rice: Flood (flooded paddy test), 13 to 15 days
Outline: as §3

[13] = test system: umbrella sedge (Cyperus difformis); test: Test B flooded paddy test; details: for Plant response rating, Sedge, Umbrella: Flood (flooded paddy test), 13 to 15 days
Outline: as §3

[14] = 31 g ai/ha, postemergence, scale 0 to 100, 0 is no effect, 100 is complete control
[15] = 250 g ai/ha, Preemergence, 0 to 100 scale
[16] = Postemergence, 62 g ai/ha, scale 0 (no effect) to 100 (complete control), 13 to 15 days
[17] = Postemergence, 125 g ai/ha, visual rating after 13 to 15 days, scale 0 (no effect) to 100 (complete control)
[18] = Postemergence, 250 g ai/ha, scale 0 to 100 (0 no effect, 100 complete control)
[19] = Preemergence, 31 g ai/ha, scale 0 to 100 (0 no effect, 100 complete control)
[20] = Preemergence, 62 g ai/ha, scale 0 to 100, 0 no effect, 100 complete control
[21] = Preemergence, 125 g ai/ha, scale 0 to 100, 0 no effect, 100 complete control
[22] = 31 g ai/ha, scale 0 to 100 (0 no effect, 100 complete control)
[23] = 62 g ai/ha, scale 0 to 100, 0 no effect, 100 complete control
[24] = 125 g ai/ha, scale 0 to 100, 0 no effect, 100 complete control
[25] = 250 g ai/ha, flooded paddy test, visual rating on 0 to 100 scale (0 no effect, 100 complete control) after 13 to 15 days
[26] = 31 g ai/ha, scale of 0 to 100 where 0 is no effect and 100 is complete control
[27] = 62 g ai/ha, scale of 0 to 100 where 0 is no effect and 100 is complete control
[28] = 125 g ai/ha, scale 0 to 100, 0 is no effect, 100 is complete control

Q: With `Cc1ccc(Cl)cc1-n1c(-c2ccccc2)ncc(C(=O)C2=C(O)CCCC2=O)c1=O` [Compound 52] as the molecule, how does the “Plant response rating, Ryegrass, Italian” value [1, 14] read?
A: 40

Q: What about the “Plant response rating, Ryegrass, Italian” value [1, 15] of the same molecule?
A: 0

Q: And the “Plant response rating, Ryegrass, Italian” value [1, 16]?
A: 45

Q: What about the “Plant response rating, Ryegrass, Italian” value [1, 17] of the same molecule?
A: 55

Q: What about the “Plant response rating, Ryegrass, Italian” value [1, 18] of the same molecule?
A: 60

Q: What about the “Plant response rating, Ryegrass, Italian” value [1, 19] of the same molecule?
A: 0

Q: What about the “Plant response rating, Ryegrass, Italian” value [1, 20] of the same molecule?
A: 0

Q: And the “Plant response rating, Ryegrass, Italian” value [1, 21]?
A: 0

Q: What about the “Plant response rating, Galium” value ([2]; 250 g ai/ha, 0 to 100 scale) of the same molecule?
A: 95

Q: And the “Plant response rating, Galium” value [2, 22]?
A: 0

Q: What about the “Plant response rating, Galium” value [2, 23] of the same molecule?
A: 0

Q: What about the “Plant response rating, Galium” value [2, 24] of the same molecule?
A: 70

Q: And the “Plant response rating, Foxtail, Giant” value [3, 14]?
A: 80

Q: What about the “Plant response rating, Foxtail, Giant” value [3, 15] of the same molecule?
A: 75

Q: And the “Plant response rating, Foxtail, Giant” value [3, 16]?
A: 80

Q: What about the “Plant response rating, Foxtail, Giant” value [3, 17] of the same molecule?
A: 90

Q: What about the “Plant response rating, Foxtail, Giant” value [3, 18] of the same molecule?
A: 90

Q: And the “Plant response rating, Foxtail, Giant” value [3, 19]?
A: 0

Q: What about the “Plant response rating, Foxtail, Giant” value [3, 20] of the same molecule?
A: 15

Q: What about the “Plant response rating, Foxtail, Giant” value [3, 21] of the same molecule?
A: 25

Q: And the “Plant response rating, Nightshade” value ([4]; 250 g ai/ha, 0 to 100 scale)?
A: 100

Q: And the “Plant response rating, Nightshade” value [4, 22]?
A: 90

Q: What about the “Plant response rating, Nightshade” value [4, 23] of the same molecule?
A: 95

Q: And the “Plant response rating, Nightshade” value [4, 24]?
A: 98

Q: What about the “Plant response rating, Ragweed” value [5, 14] of the same molecule?
A: 75

Q: What about the “Plant response rating, Ragweed” value [5, 15] of the same molecule?
A: 95

Q: And the “Plant response rating, Ragweed” value [5, 16]?
A: 80

Q: And the “Plant response rating, Ragweed” value [5, 17]?
A: 80

Q: And the “Plant response rating, Ragweed” value [5, 18]?
A: 85

Q: And the “Plant response rating, Ragweed” value [5, 19]?
A: 80

Q: What about the “Plant response rating, Ragweed” value [5, 20] of the same molecule?
A: 80

Q: And the “Plant response rating, Ragweed” value [5, 21]?
A: 85

Q: What about the “Plant response rating, Sunflower” value ([6]; 250 g ai/ha, 0 to 100 scale) of the same molecule?
A: 75

Q: And the “Plant response rating, Sunflower” value [6, 22]?
A: 10

Q: And the “Plant response rating, Sunflower” value [6, 23]?
A: 10

Q: What about the “Plant response rating, Sunflower” value [6, 24] of the same molecule?
A: 70

Q: What about the “Plant response rating, Canarygrass” value [7, 14] of the same molecule?
A: 0

Q: What about the “Plant response rating, Canarygrass” value [7, 16] of the same molecule?
A: 50

Q: What about the “Plant response rating, Canarygrass” value [7, 17] of the same molecule?
A: 65

Q: What about the “Plant response rating, Canarygrass” value [7, 18] of the same molecule?
A: 85

Q: And the “Plant response rating, Chickweed” value [8, 14]?
A: 95

Q: What about the “Plant response rating, Chickweed” value [8, 16] of the same molecule?
A: 95

Q: And the “Plant response rating, Chickweed” value [8, 17]?
A: 95

Q: And the “Plant response rating, Chickweed” value [8, 18]?
A: 98

Q: And the “Plant response rating, Windgrass” value [9, 14]?
A: 60

Q: And the “Plant response rating, Windgrass” value [9, 16]?
A: 80

Q: And the “Plant response rating, Windgrass” value [9, 17]?
A: 90

Q: What about the “Plant response rating, Windgrass” value [9, 18] of the same molecule?
A: 100

Q: What about the “Plant response rating, Barley” value [10, 14] of the same molecule?
A: 0

Q: And the “Plant response rating, Barley” value [10, 16]?
A: 0

Q: What about the “Plant response rating, Barley” value [10, 17] of the same molecule?
A: 25

Q: What about the “Plant response rating, Barley” value [10, 18] of the same molecule?
A: 25

Q: And the “Plant response rating, Flood, Barnyardgrass” value [11, 25]?
A: 55

Q: And the “Plant response rating, Barnyardgrass” value [11, 26]?
A: 0

Q: What about the “Plant response rating, Barnyardgrass” value [11, 27] of the same molecule?
A: 0

Q: What about the “Plant response rating, Barnyardgrass” value [11, 28] of the same molecule?
A: 40

Q: And the “Plant response rating, Flood, Ducksalad” value [12, 25]?
A: 70

Q: What about the “Plant response rating, Ducksalad” value [12, 26] of the same molecule?
A: 0

Q: What about the “Plant response rating, Ducksalad” value [12, 27] of the same molecule?
A: 0

Q: What about the “Plant response rating, Ducksalad” value [12, 28] of the same molecule?
A: 40

Q: What about the “Plant response rating, Flood, Rice” value (rice (Oryza sativa); [25]) of the same molecule?
A: 60

Q: What about the “Plant response rating, Rice” value (rice (Oryza sativa); [26]) of the same molecule?
A: 0

Q: What about the “Plant response rating, Rice” value (rice (Oryza sativa); [27]) of the same molecule?
A: 0

Q: What about the “Plant response rating, Rice” value (rice (Oryza sativa); [28]) of the same molecule?
A: 50

Q: What about the “Plant response rating, Flood, Sedge, Umbrella” value [13, 25] of the same molecule?
A: 40

Q: And the “Plant response rating, Sedge, Umbrella” value [13, 26]?
A: 20

Q: And the “Plant response rating, Sedge, Umbrella” value [13, 27]?
A: 30

Q: And the “Plant response rating, Sedge, Umbrella” value [13, 28]?
A: 30
